Results taken from US8999969B2, “Anti-RSV compounds” (Gilead Sciences, Inc., priority 2009, dated 2015).

Test system: RSV strain A2
Test: in vitro cytoprotection assay against RSV in Hep2 cells
Assay type: cell-based
Conditions: human respiratory syncytial virus, HEp-2, 96 h; 1 uM compound; RSV-induced cytopathic effect in Hep2 cells, 4 days, Cell TiterGlo; read-out: RSV % inh. @ 1 uM
Procedure: Antiviral activity against RSV was determined using an in vitro cytoprotection assay in Hep2 cells. […] The method used is similar to methods previously described in Chapman J et al., “RSV604 a novel inhibitor of respiratory syncytial virus replication,” Antimicrob Agents Chemother, 51(9):3346-53 (2007).
Hep2 cells were obtained from ATCC (Manassas, Va.) and maintained in MEM media supplemented with 10% fetal bovine serum and penicillin/streptomycin. Cells were passaged twice a week and kept at subconfluent stage. Commercial stock of RSV strain A2 (Advanced Biotechnologies, Columbia, Md.) was titered before compound testing to determine the appropriate dilution of the virus stock that generates desirable cytopathic effect in Hep2 cells.
For antiviral tests, Hep2 cells were seeded into 96-well plates 24 hours before the assay at a density of 3,000 cells/well. On a separate 96well plate, tested compounds were serially diluted in cell culture media. Eight concentrations in 3-fold serial dilution increments were prepared for each tested compound and 100 uL/well of each dilution was transferred in duplicate onto plates with seeded Hep2 cells. Subsequently, appropriate dilution of virus stock previously determined by titration was prepared in cell culture media and 100 uL/well was added to test plates containing cells and serially diluted compounds. Each plate included three wells of infected untreated cells and three wells of uninfected cells that served as 0% and 100% virus inhibition control, respectively. Following the infection with RSV, testing plates were incubated for 4 days in a tissue culture incubator. After the incubation, RSV-induced cytopathic effect was determined using a Cell TiterGlo reagent (Promega, Madison, Wis.) followed by a luminescence read-out. The percentage inhibition was calculated for each tested concentration relative to the 0% and 100% inhibition controls and the EC50 value for each compound was determined by non-linear regression as a concentration inhibiting the RSV-induced cytopathic effect by 50%. Ribavirin (purchased from Sigma, St. Louis, Mo.) was used as a positive control for antiviral activity.

| SMILES | inhibition at 1 µM [%] |
| --- | --- |
| CN(C)C(=O)c1cc2c(s1)-c1ccccc1N(C(=O)c1ccc(NC(=O)c3cccnc3N3CCCC3)cc1)CC2 [Example 55] | 16 |
| CC(C)(CO)NC(=O)c1cc2c(s1)-c1ccccc1N(C(=O)c1ccc(NC(=O)c3cccnc3N3CCCC3)cc1)CC2 [Example 56] | 93 |
| O=C(N[C@@H]1CCOC1)c1cc2c(s1)-c1ccccc1N(C(=O)c1ccc(NC(=O)c3cccnc3N3CCCC3)cc1)CC2 [Example 57] | 95 |
| O=C(NCCF)c1cc2c(s1)-c1ccccc1N(C(=O)c1ccc(NC(=O)c3cccnc3N3CCCC3)cc1)CC2 [Example 58] | 100 |
| COC1CN(C(=O)c2cc3c(s2)-c2ccccc2N(C(=O)c2ccc(NC(=O)c4cccnc4N4CCCC4)cc2)CC3)C1 [Example 59] | 43 |
| NC(=O)CCNC(=O)c1cc2c(s1)-c1ccccc1N(C(=O)c1ccc(NC(=O)c3cccnc3N3CCCC3)cc1)CC2 [Example 60] | 35 |
| NC(=O)c1cc2c(s1)-c1ccccc1N(C(=O)c1ccc(NC(=O)c3cccnc3N3CCCC3)cc1)CC2 [Example 61] | 84 |
| Cn1ccnc1CNC(=O)c1cc2c(s1)-c1ccccc1N(C(=O)c1ccc(NC(=O)c3cccnc3N3CCCC3)cc1)CC2 [Example 62] | 90 |
| O=C(NC1CC1)c1cc2c(s1)-c1ccccc1N(C(=O)c1ccc(NC(=O)c3ccncc3N3CC(F)C3)cc1)CC2 [Example 63] | 99 |
| O=C(NC1CC1)c1cc2c(s1)-c1ccccc1N(C(=O)c1ccc(NC(=O)c3cccnc3N3CC(F)(F)C3)c(F)c1)CC2 [Example 64] | 99 |
| Cc1cc(C(=O)Nc2ccc(C(=O)N3CCc4cc(C(=O)NC5CC5)sc4-c4ccccc43)cc2)c(N2CCCC2)nn1 [Example 65] | 95 |
| Cc1cc(C(=O)Nc2ccc(C(=O)N3CCc4cc(C(=O)NC5CC5)sc4-c4ccccc43)cc2)c(N2CC(F)(F)C2)nn1 [Example 67] | 98 |
